Source: US20250302983A1, “Saponin Conjugates” (priority 2018, published 2025)

Key:
[1] = system: SK-BR-3, JIMT-1, MDA-MB-468, A431, CaSki, HeLa, A2058; test: control treatments, relative cell viability on various cancer cell lines (FIG. 12); type: cell-based, human; details: wide range of concentrations toxin tested, up to 100.000 pM
[2] = system: HeLa cells; test: HeLa cell viability assay (MTS): SO1861 + dianthin-EGF with PAMAM, PAMAM-conjugates, G4-dendron or chloroquine; type: cell-based, human; details: positive control
From the text: Whether or not a first proteinaceous molecule comprising saponins, either or not further comprising one or more (cleavable) linkers and/or optionally a scaffold, is able to disturb the acidic environment and […] the endosomal escape function of the at least one glycoside (saponin) can be easily determined with an assay as described in Example 3 and as known in the art. The inhibition is described as “fold amount increases of glycoside necessary to induced 50% cell killing”. […] The fold increase is to be measured in assay, essentially as described in Example 4, wherein Chloroquine, as a positive control, induces a 2-fold increase in glycoside amount, preferably saponin amount wherein the saponin is any one or more of the saponins of the invention (see Table A1, Scheme I, previous embodiments) to observe 50% cell killing.
HeLa cells were seeded in DMEM (PAN-Biotech GmbH) supplemented with 10% fetal bovine serum (PAN-Biotech GmbH) and 1% penicillin/streptomycin (PAN-Biotech GmbH), in a 96 well plate at 5,000 c/w in 100 μL/well and incubated overnight at 37° C. and 5% CO2. The next day 20× concentrated stocks of the PAMAM, PAMAM-conjugates, G4-dendron (prepared in Example 3) or chloroquine (Sigma Aldrich) samples were prepared in DMEM. […]

Compound: saporin
- influence on cell viability [1]: do not or hardly have any influence on cell viability

Compound: CCN(CC)CCCC(C)Nc1ccnc2cc(Cl)ccc12 (centres unmarked) [Chloroquine]
- fold increase in glycoside (saponin) amount to observe 50% cell killing [2]: 2 fold
